“Also recorded” adds a separate entry of the source.
Assays:
[1] = Relaxivity measurements at 1.41 T; type: physicochemical
In short: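 T1 by inversion recovery and T2 by CPMG at 60 MHz, 37° C, relaxation delay ≥5×T1. Three Gd concentrations between 0.05 and 2 mM in water, FBS or fresh citrated human plasma. r1/r2 from slope of Ri versus Gd concentration (verified by ICP-MS).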

[2] = Off target activity screen (LeadProfilingScreen®, radioligand binding and enzyme assays); details: commercial radioligand binding and enzyme assays
GS9L brain tumors = assay: Contrast-enhanced MRI of brain tumors in rats; type: in vivo, male Fisher rats (F344); details: GS9L rat brain tumors, 0.1 mmol Gd/kg bw vs Reference compound 1 0.1 mmol Gd/kg bw, FIG. 11A
[3] = Relaxivity measurements at 3.0 T; type: physicochemical; details: 37° C., normalized to Gd, average ± standard deviation
In short: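 T1 measured at 3.0 T and 37 °C by inversion recovery (TE 7.46 ms, TIs 50–4500 ms) in water and fresh citrated human plasma. Three concentrations between 0.05 and 2 mM; relaxivity from slope of relaxation rate versus Gd-normalised concentration.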

[4] = Whole body imaging (dynamic MRI and tissue Gd concentration); type: in vivo, male New Zealand white rabbits; details: rabbits
Description: The study was performed with a clinical whole body MRI equipped with body spine coil, abdomen flex coil, neck coil (1.5 T Magnetom Avanto, Siemens Healthcare, Erlangen, Germany). The study was done using male New Zealand white rabbits (weight 2.3-3.0 kg, n=8, Charles River Kisslegg). All animals were initially anesthetized using a body weight-adjusted intramuscular injection of a mixture (1+2) of xylazine hydrochloride (20 mg/mL, Rompun 2%, Bayer Vital GmbH, Leverkusen, Germany) and ketamine hydrochloride (100 mg/mL, Ketavet, Pfizer, Pharmacia GmbH, Berlin, Germany) using 1 mL/kg body weight. The continuous anesthesia of the intubated animals (endotracheal tube, Rueschelit Super Safe Clear, cuff 3.0 mm, Willy Ruesch AG, Kernen, Germany) was achieved by the intravenous injection of 0.9 mg propofol per kilogram per hour (10 mg/mL, Propofol-Lipuro 1%, B. Braun Melsungen AG, Melsungen, Germany). The continuous intravenous injection was performed using a MR infusion system (Continuum MR Infusion System, Medrad Europe B. V., A E Beek, Germany). The tracheal respiration (SV 900C, Maquet, Rastatt, Germany) was performed with 55% oxygen, forty breaths per minute and a breathing volume of 7 mL per kilogram body weight per minute.
Dynamic MRI measurements up to 22 min post injection with subsequent quantitative signal analysis (Siemens Mean Curve software (SYNGO Task Card, Siemens Healthcare, Erlangen, Germany), were performed for three different regions head and neck (brain, tongue, chops muscle, neck muscle), abdomen (spleen, liver, blood) and pelvis (extremity muscle). For the three different slice groups a 3D T1-weighted Vibe sequence was used (TR=4.74 ms, TE=2.38, flip=10°, 1:29 min). The dynamic measurements of the three slice groups (Head/Neck: 1:29 min, Abdomen: 0:49 min, Pelvis: 1:16 min) were done up to 22 min post injection: 1. Head/Neck: baseline, 1.4, 5.2, 8.9, 12.8, 16.5, 20.4 min, 2. Abdomen: baseline, 0.5, 4.3, 8.1, 11.9, 15.7, 19.5 min and 3. Pelvis: baseline, 2.9, 6.7, 10.5, 14.4, 18.1, 22.0 min. At 30 min post injection the animals were sacrificed and the Gd concentrations were measured using Inductively Coupled Plasma Mass Spectroscopy (ICP-MS Agilent 7500a, Waldbronn, Germany) in the following tissue samples: blood, brain, tongue, liver and extremity muscle. A quantitative image evaluation was performed for the 30 min time point p.i. due to the combination of the quantitative ICP-MS Gadolinium concentrations and the MRI region-of-interest analysis.

CC(C(=O)NCC(=O)NCC(CNC(=O)CNC(=O)C(C)N1CCN(CC(=O)[O-])CCN(CC(=O)[O-])CCN(CC(=O)[O-])CC1)(CNC(=O)CNC(=O)C(C)N1CCN(CC(=O)[O-])CCN(CC(=O)[O-])CCN(CC(=O)[O-])CC1)CNC(=O)CNC(=O)C(C)N1CCN(CC(=O)[O-])CCN(CC(=O)[O-])CCN(CC(=O)[O-])CC1)N1CCN(CC(=O)[O-])CCN(CC(=O)[O-])CCN(CC(=O)[O-])CC1.[Gd+3].[Gd+3].[Gd+3].[Gd+3] (centres unmarked) [Example 3, Tetragadolinium [4,10-bis(carboxylatomethyl)-7-{3,6,12,15-tetraoxo-16-[4,7,10-tris-(carboxylatomethyl)-1,4,7,10-tetraazacyclododecan-1-yl]-9,9-bis({[({2-[4,7,10-tris-(carboxylatomethyl)-1,4,7,10-tetraazacyclododecan-1-yl]propanoyl}amino)acetyl]-amino}methyl)-4,7,11,14-tetraazaheptadecan-2-yl}-1,4,7,10-tetraazacyclododecan-1-yl]acetate]
r1 FBS ([1]; fetal bovine serum, 1.41 T, 37° C., normalized to Gd): 11.5 L/mmol/s | r1 human plasma ([1]; human plasma, 1.41 T, 37° C., normalized to Gd): 11.8 L/mmol/s | relaxivity relative to reference compound 1 ([1]; see Example A): approximately 2 fold | r1 water ([1]; water, 1.41 T, 37° C., normalized to Gd): 10.1 L/mmol/s | off target activity [2]: no critical finding | lesion-to-brain contrast at the same dose (GS9L brain tumors): higher lesion-to-brain contrast and an excellent demarcation of the tumor rim | r1 human plasma ([3]; human plasma): 10.2 ± 0.2 L/mmol/s | r1 water ([3]; water): 9.2 ± 0.3 L/mmol/s | slope of the linear regression between tissue gadolinium concentration and MRI signal change ([4]; tissues 30 min p.i., FIGS. 8A and 8B): 1.9 | time course of contrast enhancements / signal changes ([4]; various tissues, up to 22 min post injection, vs Reference compound 1, FIG. 7): No differences in the time course of signal changes were observed; also recorded: no differences in the time course of contrast enhancements were observed | contrast enhancement (amplitude) ([4]; various tissues, vs Reference compound 1, FIG. 7): higher compared to that of Reference compound 1

From patent US11491245B2, “Gadolinium chelate compounds for use in magnetic resonance imaging” (BAYER PHARMA AKTIENGESELLSCHAFT, priority 2015, dated 2022)
